Laboratory results as given in PubChem BioAssay (NCI).
“And” between values parts separate entries of the source, which are not always exact repeats. Equal values may be shown once.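 Cells were grown in 96-well plates and exposed to each compound for 48 hours at five concentrations; endpoints were interpolated linearly between bracketing concentrations, or set to the highest concentration if not reached. GI50 = concentration required for 50% inhibition of growth. TGI: concentration producing complete growth inhibition.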

Experiments:
Test in all cases: NCI-60 cell line screen, 48 h
HOP-62 NSCLC = tested on: HOP-62 NSCLC
T-47D breast = tested on: T-47D breast
DU-145 prostate = tested on: DU-145 prostate
SF-539 CNS = tested on: SF-539 CNS
OVCAR-4 ovarian = tested on: OVCAR-4 ovarian
SK-MEL-5 melanoma = tested on: SK-MEL-5 melanoma
MDA-MB-435 = tested on: MDA-MB-435
MALME-3M melanoma = tested on: MALME-3M melanoma
A498 renal = tested on: A498 renal
OVCAR-8 ovarian = tested on: OVCAR-8 ovarian

| SMILES | GI50 (HOP-62 NSCLC) | TGI (HOP-62 NSCLC) | GI50 (T-47D breast) | TGI (T-47D breast) | GI50 (DU-145 prostate) | TGI (DU-145 prostate) | GI50 (SF-539 CNS) | TGI (SF-539 CNS) | GI50 (OVCAR-4 ovarian) | TGI (OVCAR-4 ovarian) | GI50 (SK-MEL-5 melanoma) | TGI (SK-MEL-5 melanoma) | GI50 (MDA-MB-435) | TGI (MDA-MB-435) | GI50 (MALME-3M melanoma) | TGI (MALME-3M melanoma) | GI50 (A498 renal) | TGI (A498 renal) | GI50 (OVCAR-8 ovarian) | TGI (OVCAR-8 ovarian) |
| --- | --- | --- | --- | --- | --- | --- | --- | --- | --- | --- | --- | --- | --- | --- | --- | --- | --- | --- | --- | --- |
| CC(C)(C)[Si](C)(C)OC1[C@@H](COC(=O)NC(=O)CCl)O[C@@H](n2cnc3c(N)ncnc32)[C@H]1O[Si](C)(C)C(C)(C)C (stereo not given in full) | 4040 nM | 10.3 µM | 4940 nM | 11.1 µM | 5750 nM | 12 µM | 6970 nM | 13.6 µM | 3890 nM | 10.7 µM | 1820 nM | 5.02 µM | 2350 nM | 8.89 µM | 984 nM | 2.01 µM | 6580 nM | 13.1 µM | 1420 nM | 4.45 µM |
| COc1ccc2nc3ccccc3c(NCCNCC(C)O)c2c1 (stereo not given) | 369 nM | 2.57 µM | 465 nM | 6.27 µM | 516 nM | 14.7 µM | 435 nM | 2.04 µM | 463 nM | 4.45 µM | 1030 nM | 2.3 µM | 433 nM | 1.77 µM | 426 nM | 1.72 µM | 73.4 nM | 0.73 µM | 441 nM | 11.9 µM |
| CCC(c1ccccc1)c1cc(C(C)(C)C)cc(C(C)(C)C)c1O (stereo not given) |  | 29.7 µM |  | 29.6 µM |  | 33.2 µM |  | 34.2 µM |  | 29.3 µM |  | 32.7 µM |  | 32 µM |  | 26.8 µM |  | 33.9 µM |  | 31.1 µM |
| O=C1/C(=C/c2ccc([N+](=O)[O-])o2)Oc2ccc(Cl)cc21 | 4530 nM | 23.9 µM | 1670 nM | 5.02 µM | 2250 nM | 4.88 µM | 1820 nM | 3.97 µM | 1900 nM | 3.68 µM | 1580 nM | 3.03 µM | 1990 nM | 4.5 µM | 2100 nM | 4.47 µM | 14400 nM | 34 µM | 2060 nM | > 22.1 µM |
| CC(=O)c1c(C)c2cnc(Nc3ccc(N4CCNCC4)cn3)nc2n(C2CCCC2)c1=O | 12800 nM | 26.2 µM | 14500 nM | 32.6 µM | 9820 nM | 21.7 µM | 14100 nM | 28.3 µM | 11200 nM | 23.8 µM | 2580 nM | 9.94 µM | 6500 nM | 22 µM | 8250 nM | 24.4 µM | 4690 nM | 19.5 µM | 12900 nM | 28.7 µM |
| CC1=C[C@@H]2c3c(c(O)c(O)c4oc5cc(O)cc(O)c5c(=O)c34)[C@@H](c3cc(O)c(O)c4oc5cc(O)cc(O)c5c(=O)c34)[C@@H]2C(C)(C)C1 | 3000 nM | 14.5 µM | 4600 nM | 19.2 µM | 5530 nM | 16.6 µM | 4700 nM | 17.2 µM | 3260 nM | 14.7 µM | 2560 nM | 10.5 µM | 3490 nM | 13.7 µM | 8530 nM | 25.2 µM | 9070 nM | 21 µM | 4310 nM | 18.8 µM |
| CC1(C)C(=O)/C=C\C(=O)C(C)(C)C(=O)/C=C\C(=O)C(C)(C)C2=CC=C(O2)C(C)(C)C(=O)/C=C\C1=O |  | 44.7 µM |  | 18.5 µM |  | 32.1 µM |  | 17.7 µM |  | 14.8 µM |  | 21.2 µM |  | 29.3 µM |  | 4.11 µM |  | 30.9 µM |  | 11.6 µM |
| CCOC(=O)/C=C1/SC(=Nc2ccc(C#N)cc2)N(Cc2ccco2)C1=O | 2940 nM | 9.21 µM | 2570 nM | 8.24 µM | 3170 nM | 10.5 µM | 3090 nM | 12.4 µM | 2740 nM | 11.2 µM | 6710 nM | 20.4 µM | 3440 nM | 15.8 µM | 2450 nM | 9.65 µM | 14800 nM | 30 µM | 2830 nM | 7.94 µM |
| CNc1cc(-c2cccc(OC(F)(F)F)c2)nc2ccc(N3CCCC3)cc12 | 1620 nM and 1690 nM and 1720 nM | 3.11 µM and 3.16 µM | 1590 nM and 1760 nM | 3.51 µM and 3.47 µM | 1610 nM and 1840 nM and 1880 nM | 3.12 µM and 3.5 µM and 3.4 µM | 1720 nM and 1880 nM and 1780 nM | 3.19 µM and 3.45 µM and 3.22 µM | 1630 nM and 1690 nM and 1750 nM | 3.33 µM and 3.19 µM and 3.36 µM | 1740 nM and 1650 nM and 1640 nM | 3.12 µM and 3.06 µM and 3.01 µM | 1590 nM and 1710 nM and 1630 nM | 2.97 µM and 3.19 µM and 3.09 µM | 1780 nM and 1920 nM and 1700 nM | 3.24 µM and 3.4 µM and 3.16 µM | 1170 nM and 1610 nM and 1660 nM | 2.41 µM and 3 µM and 3.08 µM | 1800 nM and 1810 nM and 1820 nM | 3.5 µM and 3.39 µM and 3.55 µM |
| CSc1nc2c(c(=O)n1C)C(c1ccccc1)C1=C(N2)/C(=C/c2ccccc2)CCC1 (stereo not given) | 20000 nM | > 100 µM | 4150 nM | > 100 µM | 8020 nM | > 100 µM | 9980 nM | 81.5 µM | 30800 nM | > 100 µM | 3580 nM | > 100 µM | 3990 nM | > 100 µM | 5870 nM | > 100 µM | 16800 nM | 88.4 µM | 3970 nM | > 100 µM |
| CC/C=C\C[C@H]1C/C=C2/C(=O)C(Cl)=C[C@@H]2C/C=C\CCCC(=O)O1 | 490 nM | 1.31 µM | 580 nM | 2.36 µM | 517 nM | 1.85 µM | 523 nM | 1.41 µM | 952 nM | 4.9 µM | 379 nM | 0.759 µM | 169 nM | 1.43 µM | 398 nM | 1.22 µM | 560 nM | 1.43 µM | 143 nM | 2.68 µM |
| COc1ccc2c(c1)-c1c(c3cc(OC)ccc3n(CCN(C)C)c1=O)C2=O | 676 nM | 12.1 µM | 3230 nM | 11.4 µM | 565 nM | 3.54 µM | 1990 nM | 8.58 µM | 799 nM | 4 µM | 2600 nM | 8.92 µM | 950 nM | 5.73 µM | 1170 nM | 5.65 µM | 1360 nM | 6.48 µM | 310 nM | 5.59 µM |
| CCS(=O)(=O)c1ccc(OC)c(Nc2ncc(-c3cccc(F)c3)o2)c1 | > 25000 nM | > 25 µM | > 25000 nM | > 25 µM | > 25000 nM | > 25 µM | > 25000 nM | > 25 µM | > 25000 nM | > 25 µM | > 25000 nM | > 25 µM | > 25000 nM | > 25 µM | > 25000 nM | > 25 µM | 340 nM | > 25 µM | > 25000 nM | > 25 µM |
| COc1cnccc1Nc1nc(-c2nn(Cc3c(F)cc(OCCO)cc3F)c3ccccc23)ncc1OC | 2460 nM | 8.32 µM | 16500 nM | 72.7 µM | 3110 nM | 11.5 µM | 10700 nM | 22.9 µM | 1740 nM | 3.68 µM | 2910 nM | 13 µM | 1730 nM | 6.18 µM | 2160 nM | 5.88 µM | 12700 nM | 50.2 µM | 2030 nM | 5.82 µM |
| COc1cc(-c2ccc[nH]2)[nH]c1/C=C1\N=C(C)C(CC(=O)OCC(C)(C)C)=C1C | 218 nM | 1.38 µM | 157 nM | 0.887 µM | 226 nM | 1.53 µM | 357 nM | 1.6 µM | 331 nM | 2.06 µM | 137 nM | 0.279 µM | 282 nM | 1.2 µM | 400 nM | 1.69 µM | 163 nM | 0.867 µM | 321 nM | 1.44 µM |
| COc1ccc2c(c1)C(=O)c1c-2n(CCCN(C)C)c(=O)c2cc([N+](=O)[O-])ccc12 | < 10 nM | < 0.0447 µM | < 10 nM | 21.6 µM | < 10 nM | 0.0319 µM | < 10 nM | < 0.01 µM | 51.5 nM | 9.37 µM | < 10 nM | < 0.012 µM | < 10 nM | 1.32 µM | 20.7 nM | 0.892 µM | 36 nM | 0.694 µM | < 11 nM | 3.75 µM |
| O=C1NC(=NCCc2ccc(Br)cc2)S/C1=C\c1ccc2ncccc2c1 | > 25000 nM | > 25 µM | > 17100 nM | > 25 µM | > 25000 nM | > 25 µM | 14500 nM | > 25 µM | 10500 nM | > 25 µM | > 21000 nM | > 25 µM | 11800 nM | > 25 µM | > 21700 nM | > 25 µM | 6290 nM | > 25 µM | > 25000 nM | > 25 µM |
| C[C@]12CCC(=O)C[C@@H]1CC[C@@H]1[C@@H]2CC[C@]2(C)[C@@H](OC(=O)N(CCCl)N=O)CC[C@@H]12 | 1750 nM | 14.1 µM | 2910 nM | 30 µM | 405 nM | 3.95 µM | 69 nM | 4.67 µM | 11500 nM | 29.7 µM | 1050 nM | 6.16 µM | 1070 nM | 18.1 µM | 4300 nM | 24.1 µM | 1820 nM | 4.98 µM | 1360 nM | 24 µM |
| CN(CCCCCl)P(=O)(OCc1ccc([N+](=O)[O-])o1)OCC1OC(n2cc([N+](=O)[O-])c(=O)[nH]c2=O)CC1O (stereo not given) | 41200 nM | > 100 µM | > 100000 nM | > 100 µM | > 100000 nM | > 100 µM | 4510 nM | > 100 µM | 9750 nM | 84.8 µM | > 100000 nM | > 100 µM | > 100000 nM | > 100 µM | > 100000 nM | > 100 µM | 29600 nM | > 100 µM | 41600 nM | > 100 µM |
| COc1ccc(C(O)c2ccccn2)cc1 (stereo not given) |  | > 100 µM |  | > 100 µM |  | > 100 µM |  | > 100 µM |  | > 100 µM |  | > 100 µM |  | > 100 µM |  | > 100 µM |  | > 100 µM |  | > 100 µM |
| C=CCSC(C)=O |  | > 100 µM |  | > 100 µM |  | > 100 µM |  | > 100 µM |  | > 100 µM |  | > 100 µM |  | > 100 µM |  | > 100 µM |  | > 100 µM |  | > 100 µM |
